Data on seven molecules can be found in patent US20110183942A1, “Methods and Compositions for Treating Alzheimer's Disease” (UNIVERSITY OF MEDICINE AND DENTISTRY OF NEW JERSEY, priority 2008, published 2011).

Assay [1] deals with global protein synthesis in cultured neurons. Nature of the assay: Metabolic labeling, incorporation of 35S methionine and cysteine into TCA precipitant. The conditions noted are these: 100 nM cycloheximide. The class given is cell-based. Here is the method:
To measure the incorporation of ^35S methionine and cysteine into new peptide, 30 μl protein labeling mix (Perkin Elmer) was added into 1.5 ml of regular culture medium (final 220 μCi/ml) for the time indicated in the figures. After washout once with ice-cold PBS, cells were lysed with 700 μl of RIPA buffer. After quantification of total amount of protein, equal amount of lysate (˜200 μl) was precipitated with 10% TCA.

Assay [2] deals with Arc protein in DIV14 forebrain neurons. Nature of the assay: Western blot of Arc protein in cultured forebrain neurons. The assay is classed as cell-based, mouse. The conditions noted are these: for level of Arc protein, low dose cycloheximide: 10 min; for level of Arc protein after BDNF: BDNF 10 ng/ml. How it is done:
For biochemistry experiments, 0.4×10^6 neurons were added to each well of a 6-well plate (Coming) coated with poly-L-lysine. Growth medium consisted of NeuroBasal (Invitrogen) supplemented with 1% fetal bovine serum (Hyclone), 2% B27, 1% Glutamax (Invitrogen), 100 U/mL penicillin, and 100 U/mL streptomycin (Invitrogen). Neurons were fed twice per week with glia conditioned growth medium.
Transfected HEK293T cells or cultured neurons were treated with various drugs and then harvested in IP buffer supplemented with 1% Triton X-100 buffer and Complete™ EDTA-Free protease inhibitors. Soluble fractions were diluted with 4× SDS sample buffer.
The membrane was blocked with TBST (50 mM Tris, pH 7.5, with 150 mM NaCl, and 0.1% Tween-20) containing 5% non-fat milk for one hour at room temperature, followed by incubation with primary antibody in TBST buffer overnight at 4° C. After three washes with TBST buffer, membranes were incubated with HRP-conjugated anti-rabbit, or anti-mouse antibody in TBST for another hour. After three washes with TBST buffer, the membrane was treated with SuperSignal ECL substrate (Pierce) according to the manufacturer's protocol.
To reduce the background signal in the co-IP assay, HRP-conjugated HA or HPR conjugated myc antibody (Santa Cruz) was used when overexpressed proteins were tagged with HA or myc. […] Image J software (NIH) was used for quantification.

The test system of assay [3] is hippocampal Schaffer collateral-CA1 synapses. Put plainly: Field recording of fEPSP (mGluR-LTD) in acute hippocampal slices. The assay is classed as cell-based, mouse. The settings on record: for DHPG-LTD in the presence of high dose cycloheximide: cycloheximide 60 μM, t=105 min. How it is done:
For recording, slices were placed in a submersion recording chamber and perfused with 30° C. ACSF at a rate of 2 ml/min.
fEPSPs were recorded with extracellular recording electrodes (1.0 MΩ) filled with ACSF and placed in the stratum radiatum of area CA1. Synaptic responses were evoked by a 200-μsec current pulse to Schaffer collateral axons with a concentric bipolar tungsten stimulating electrode. Stable baseline responses were collected every 30 sec by using a stimulation intensity (10-30 μA) yielding 50-60% of the maximal fEPSP slope response.
mGluR-LTD was induced by a mGluR1/5 agonist, (R,S)-3,5-DHPG (Tocris), or by electrical stimulations. […] NMDAR dependent-LTD was induced by using 900 single pulses delivered at 1 Hz.

In the next assay the target is eEF2K (Homo sapiens, UniProt O00418). Nature of the assay: eEF2K activity in vitro. The class given is biochemical.
Assay [4] deals with Arc protein in DIV14 hippocampal neurons. Nature of the assay: Arc immunocytochemistry in cultured hippocampal neurons. The class given is cell-based, mouse. The settings on record: emetine 10 ng/ml, 10 min. Here is the method:
Immunocytochemistry of cultured neurons was performed as described (Shepherd et al., Neuron, 52, 475-484 (2006)). Briefly, DIV14 primary hippocampal neurons were fixed in fixation solution (4% paraformaldehyde, 4% sucrose containing 1× PBS) for 20 min at 4° C. and were permeabilized with 0.2% Triton X-100 in PBS for 10 min 4° C. Cells were then blocked for 1 hr at room temperature in 10% normal goat serum (NGS). Primary antibodies were diluted (1:250 of phospho-eEF2 antibody, 1:500 of PSD95, 1:300 for Arc) in 10% NGS and incubated with neurons for overnight at 4° C. Alexa 488, or Alexa 555-conjugated secondary antibodies (1:500; Molecular Probes) were diluted in 10% NGS and incubated at room temperature for 1 hr. Coverslips were mounted with PermaFluor containing DAPI (Invitrogen). All images were taken with same exposure and setting using Zeiss 510 Meta confocal microscope. Quantification of Arc levels was carried out using Image J software. For the measurement of dendritic Arc levels, average pixel intensity was measured in the primary dendrites 20 μm away from the soma.

In assay [5] the test system is surface AMPA receptor (GluR2/3, GluR1) in cultured neurons. Put plainly: Surface biotinylation assay of AMPA receptor subunits. The assay is classed as cell-based, mouse. How it is done: For surface biotinylation, drug-treated cortical neurons were cooled on ice, washed twice with ice-cold PBS++ (1× PBS, 1 mM CaCl2, 0.5 mM MgCl2) and then incubated with PBS++ containing 1 mg/ml Sulfo-NHS-SSBiotin (Pierce) for 30 min at 4° C. Unreacted biotin was quenched by washing cells three times with PBS++ containing 100 mM Glycine (pH 7.4) (briefly once and for 5 min twice). Cultures were harvested in RIPA buffer and sonicated. Homogenates were centrifuged at […] for 20 min at 4° C. Fifteen % of supernatant was saved as the total protein. […] Precipitates were washed with RIPA buffer three times (5 min each time). All procedures were done at 4° C.

Assay [6] concerns Arc mRNA in cultured neurons. Put plainly: Real-time RT-PCR of Arc mRNA. The class given is cell-based. The settings on record: BDNF 10 ng/ml at 40 min; forskolin 50 μM at 20 min; DHPG at 20 and 40 min after stimulation. Here is the method:
RNA samples from neuronal cultures were prepared using the PARIS kit (Ambion) according to the manufacturer's protocol. Following RNA extraction, samples were treated with DNase to remove contaminating DNA prior to cDNA synthesis. Total RNA was reverse transcribed using the SuperScript II First Strand Synthesis System for RT-PCR (Invitrogen) according to the manufacturer's protocol. A negative control without reverse transcriptase was included.
Primer specificity was verified by melt curve analysis. PCR amplification of cDNA was performed using the BioRad iCycler Real-Time Detection System (BioRad Laboratories). cDNA (1 μl) was added to 24 μl of 1× reaction master mix (3 mM MgCl2, KCl, Tris-HCl, iTaq DNA polymerase, 25 units/ml SYBR Green 1, 0.2 mM each dNTPs, 10 nM fluorescein and 500 nM each gene specific primers). […]
GAPDH was used to normalize data. The threshold for detection of PCR product above background was set at 10× the standard deviation of the mean background fluorescence for all reactions. Background fluorescence was determined from cycles 1-5 prior to the exponential amplification of product and subtracted from the raw fluorescence of each reaction/cycle. […] Threshold cycle (CT; number of cycles to reach threshold of detection) was determined for each reaction.
Relative gene expression was determined using the 2^−ΔΔCT method (Livak, et al., Methods 25, 402-408 (2001)). […]
(In general: Quantitative PCR measures a nucleic acid by following its amplification.)

Where “and” joins values, the source holds several entries; their conditions need not be identical. Equal values may be shown once. Entries after “also recorded” stand apart in the source; their conditions may differ. Read-outs that look alike come from different tables or passages of the source. *1 amine or outer side, *2 acyl side, *3 side chain or, on linkers, in order; H or OH if unused. Where a SMILES comes first, the peptide text is derived from it. Bridges are numbered along the chain shown (N, C = ends). Roman numbers before positions name the chains, in order. [ ]: non-standard residue; d: D form. The star is where a group is joined. Actinocin(9to1) = Cc1c2oc3c(C)ccc(C(=O)[*:1])c3nc-2c(C(=O)[*:2])c(N)c1=O; NMeV = CN[C@H](C(=O)O)C(C)C; Cbz = O=C(OCc1ccccc1)*; Sar = CNCC(=O)O

On to `C[C@@H]1C[C@@H]([C@H](O)CC2CC(=O)NC(=O)C2)C(=O)[C@@H](C)C1` [cycloheximide], for which, in assay [1], the “total incorporation of 35S labeled methionine and cysteine into TCA precipitant” value was ~60%. The “effect on induction of Arc protein by DHPG (5 min)” value in assay [2] is given as “blocked”. Moreover, the “induction of Arc, high dose cycloheximide” value in assay [2] (>1 uM, WT and eEF2K KO neurons) is “did not induce Arc”. Also, the “level of Arc protein, low dose cycloheximide” value in assay [2] (WT neurons, low dose (50-100 nM)) is reported as “increased Arc protein”; in assay [2] (WT neurons, low dose (50-100 nM), listed as CHX), “increased the level of Arc protein”; in assay [2] (eEF2K KO neurons, 50 nM and 100 nM), “increased the level of Arc protein”. Moreover, the “fEPSP slope, low dose cycloheximide + DHPG” value in assay [3] is 75.7±7.4 % of baseline and 69.0±2.6 % of baseline. Also, the “DHPG-LTD in the presence of high dose cycloheximide” value is reported as 72.3±4.8 % of baseline in assay [3] (Fmr1 KO slices) and 95.5±2.9 % of baseline in assay [3] (WT (FVB) slices). For the same molecule, the results for the “baseline synaptic transmission, low dose cycloheximide without mGluR stimulation” value in assay [3] (WT slices) and in assay [3] (eEF2K KO slices) were 101.2±2.0% and 100.4±4.6%, respectively.

`CC(C)C[C@@H](C=O)NC(=O)[C@H](CC(C)C)NC(=O)[C@H](CC(C)C)NC(=O)OCc1ccccc1` [MG132] (Cbz-Leu-Leu-Leu-aldehyde): the “level of Arc protein with proteasome inhibitor” value in assay [2] (MG132 10 μM, 1 hr) was “increased the basal level of Arc protein; also recorded: increased the levels of Arc”.

Consider `CCCCCCCCCCCCC/C=C/[C@@H](O)[C@@H](N)COP(=O)(O)O` [Sphingosine-1-phosphate, sphingosine-1-phosphate], for which the “inhibition of eEF2K activity in vitro” value is “inhibit eEF2K activity” at eEF2K and “inhibitor of eEF2 kinase” against eEF2K (listed as sphingosine-1-phosphate).

With `Cc1c2oc3c(C)ccc(C(=O)N[C@@H]4C(=O)N[C@H](C(C)C)C(=O)N5CCC[C@H]5C(=O)N(C)CC(=O)N(C)[C@@H](C(C)C)C(=O)O[C@@H]4C)c3nc-2c(C(=O)N[C@@H]2C(=O)N[C@H](C(C)C)C(=O)N3CCC[C@H]3C(=O)N(C)CC(=O)N(C)[C@@H](C(C)C)C(=O)O[C@@H]2C)c(N)c1=O` [Actinomycin D] (I: T[dV]P[Sar][NMeV] / II: T[dV]P[Sar][NMeV]; ester I:1-I:C, II:1-II:C; linker I:N-II:N via Actinocin(9to1)), the “effect on induction of Arc protein by DHPG (5 min)” value in assay [2] is reported as “did not alter; also recorded: did not block”. Further, the “basal levels of Arc with transcription inhibitor” value in assay [2] (ActD 10 μM, 1 hr) is “decreased the basal levels of Arc”.

Consider `CC[C@H]1CN2CCc3cc(OC)c(OC)cc3[C@@H]2C[C@@H]1C[C@H]1NCCc2cc(OC)c(OC)cc21` [emetine], for which the “effect on rapid DHPG-induced increase of Arc (immunocytochemistry)” value in assay [4] is on record as “blocked”.

Take `NC1=N[C@H](O)[C@H]2[C@H]3O[C@]4(O)O[C@@H]([C@@H](O)[C@@]2(N1)[C@@H]4O)[C@]3(O)CO` [TTX, tetrodotoxin]: the “surface expression of GluR1” value in assay [5] is listed as “increased the surface expression of GluR1”.

B1: BDNF: BDNF, applied at 10 ng/ml to neurons (protein, UniProt P23560 19-247, looked up)
Neurotrophic factor BDNF …: APMKEANIRGQGGLAYPGVRTHGTLESVNGPKAGSRGLTSLADTFEHVIEELLDEDQKVRPNEENNKDADLYTSRVMLSSQVPLEPPLLFLLEEYKNYLDAANMSMRVRRHSDPARRGELSVCDSISEWVTAADKKTAVDMSGGTVTVLEKVPVSKGQLKQYFYETKCNPMGYTKEGCRGIDKRHWNSQCRTTQSYVRALTMDSKKRIGWRFIRIDTSCVCTLTIKRGR
For B1, the figures for the “level of Arc protein after BDNF” value in assay [2] (40 min after treatment) and in assay [2] (after 5 min) were “increased Arc protein expression; also recorded: increased the level of Arc protein” and “no change”, respectively. Also, in assay [6], the “level of Arc mRNA” value is reported as “induced the level of Arc mRNA”.
